The values below come from publication PMC6072100, “Exploring the links between peptoid antibacterial activity and toxicity” (MedChemComm, 2017).

The nature of series [1]: Skin cell toxicity assay with HaCaT (alamarBlue). The conditions noted are these: human, HaCaT cells (keratinocytes). In kind it is cell-based, human. In a few lines:
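HaCaT cells seeded at 2x10^4 per well 24 hours before 1-hour exposure to a 2–100 µM triplicate dilution series in DMEM high glucose with 10% FBS at 37 °C, 5% CO2. Viability assessed with alamarBlue; ED50 defined as dose killing 50% of cells, derived from dose-response data.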
A general note: Alamar Blue is a resazurin reagent that responds to reducing activity.

A short description of series [2]: Cytotoxicity assay with HepG2 (alamarBlue). In kind it is cell-based, human. The conditions noted are these: human, HepG2 cells. The protocol: The activity of our peptoid library was assessed against both bacterial and mammalian cells to gain a broader understanding of the factors that lead to effective and selective antimicrobial peptoids. We screened for broad-spectrum antibacterial activity against Gram-negative (Escherichia coli and Pseudomonas aeruginosa) and Gram-positive (Staphylococcus aureus and S. epidermidis) bacteria. The toxicity of the library was also assessed against two mammalian cell lines; HaCaT spontaneously transformed aneuploid keratinocytes were employed to model toxicity against human skin cells and HepG2, a cell line derived from a human liver carcinoma, were used as a study on polarised human hepatocytes. Detailed methods for these assays can be found in the ESI. ^‡ […]
Please note – ED50, the median effective dose, was defined as the dose that kills 50% of cells.
Cytotoxicity analyses were performed in 96-well plates (Costar, Fisher Scientific) using alamarBlue® (Invitrogen) for cell viability detection using a modified protocol as described previously. HepG2 or HaCaT cells were subcultured at 37 °C, 5% CO2 in DMEM high glucose supplemented with heat-inactivated foetal bovine sera (FBS, 10%; Biosera Ltd) and penicillin/streptomycin (P/S, 1%). Cells were counted using a Neubauer Improved Haemocytometer. HepG2 cells were seeded 1 day prior to treatment in 96 well plates at a concentration of 2 × 10^5 cells per mL in 100 μL of medium (2 × 10^4 cells per well). Then cells were pre-incubated with the compounds in triplicate in a dilution series in triplicate from 2–100 μM (5 mM stock solutions in DMSO diluted from 100 μM to 3 μM; untreated cells with DMSO as a negative control) in 50 μl of the media for 1 hour. Afterwards, 40 μL were removed from each well before the addition of 90 μL of the media, followed by incubation for 24 hours at 37 °C, 5% CO2. Then, 10 μL of alamarBlue® (Invitrogen) was added to each well before a 2 hour incubation prior to assessing cell viability using a fluorescent plate reader (Biotek; Ex 560 nm/Em 600 nm). All data were measured in triplicate on a minimum of two occasions to ensure a robust data set was collected. The ED50 values were calculated from the dose response results achieved from the serial dilutions.
Cytotoxicity assay with HepG2
Cytotoxicity analyses were performed in 96-well plates (Costar, Fisher Scientific) using alamarBlue® (Invitrogen) for cell viability detection using a modified protocol as previously described. The HepG2 cells were grown at 37 °C, 5% CO2 in DMEM high glucose supplemented with heat-inactivated foetal bovine sera (FBS, 10%; Biosera Ltd) and penicillin/streptomycin (P/S, 1%). Cells were counted using a Neubauer Improved Haemocytometer. HepG2 cells were seeded 1 day prior to treatment in 96 well plates at a concentration of 2x10^5 cells/mL in 100 µL of medium (2x10^4 cells/well). Then cells were pre-incubated with the compounds in triplicate (5 mM stock solutions in DMSO diluted from 100 µM to 3 µM; untreated cells with DMSO as a negative control) in 50 µl of the media for 1 hour.
Afterwards, 40 µL were removed from each well before the addition of 90 µL of the media, followed by incubation for 24 hours at 37 °C, 5% CO2. Then, 10 µL of alamarBlue® (Invitrogen) was added to each well before a 2 hour incubation prior to assessing cell viability using a fluorescent plate reader (Biotek; Ex 560 nm / Em 600 nm). All data was measured in triplicate on a minimum of two occasions to ensure a robust data set was collected. The ED50 values were calculated from the dose response results achieved from the serial dilutions. […]
5% CO2 in DMEM high glucose supplemented with heat-inactivated foetal bovine sera (FBS, 10%; Biosera Ltd) and penicillin/streptomycin (P/S, 1%). Cells were counted using a Neubauer […]
Empty wells were filled with 100 µL PBS. After 24 hours, cells were incubated with the compounds in a dilution series in triplicate from 2 – 100 µM (5 mM stock solutions in DMSO […]

Where [3] appears, read: dose that kills 50% of cells, 2–100 μM, 1 h with compound then 24 h, alamarBlue, read-out: ED50 HaCaT.
Where [4] appears, read: dose that kills 50% of cells, 2–100 μM, 1 h with compound then 24 h, alamarBlue, read-out: ED50 HepG2.

Square brackets hold non-standard residues; d marks the D form. Peptide text beside a SMILES is read from it. Gly(Nα-4-Cl-benzyl) = O=C(O)CNCc1ccc(Cl)cc1; N(4-F-Bzl)Gly = O=C(O)CNCc1ccc(F)cc1; Gly(N-(CH2)6NH2) = NCCCCCCNCC(=O)O; Gly(N-2-aminoethyl) = NCCNCC(=O)O; Nspe = C[C@H](NCC(=O)O)c1ccccc1; Nphe = O=C(O)CNCc1ccccc1; Nlys = NCCCCNCC(=O)O

Take `C[C@@H](c1ccccc1)N(CC(N)=O)C(=O)CN(C(=O)CN(CCCCN)C(=O)CN(Cc1ccc(F)cc1)C(=O)CN(Cc1ccc(F)cc1)C(=O)CN(CCCCN)C(=O)CN(C(=O)CN(C(=O)CN(CCCCN)C(=O)CN(Cc1ccc(F)cc1)C(=O)CN(Cc1ccc(F)cc1)C(=O)CNCCCCN)[C@@H](C)c1ccccc1)[C@@H](C)c1ccccc1)[C@@H](C)c1ccccc1` [Peptoid 28, [(NLysNpfbNpfb)(NLysNspeNspe)]2]: the CC50 at 24 h was determined as 100 µM in series [1] (ED50 HaCaT) and 55 µM in series [2] (ED50 HepG2).

With `C[C@@H](c1ccccc1)N(CC(N)=O)C(=O)CN(C(=O)CN(CCCCN)C(=O)CN(C(=O)CN(C(=O)CN(CCCCN)C(=O)CN(C(=O)CN(C(=O)CN(CCCCN)C(=O)CN(C(=O)CN(C(=O)CNCCCCN)[C@@H](C)c1ccccc1)[C@@H](C)c1ccccc1)[C@@H](C)c1ccccc1)[C@@H](C)c1ccccc1)[C@@H](C)c1ccccc1)[C@@H](C)c1ccccc1)[C@@H](C)c1ccccc1` [Peptoid 13, (NLysNspeNspe)4] (H-[Nlys][Nspe][Nspe][Nlys][Nspe][Nspe][Nlys][Nspe][Nspe][Nlys][Nspe][Nspe]-NH2), the results for the CC50 at 24 h in series [1] (setting [3]) and in series [2] (setting [4]) were 20 µM and 29 µM, respectively.

As for `NCCCCNCC(=O)N(CC(=O)N(CC(=O)N(CCCCN)CC(=O)N(CC(=O)N(CC(=O)N(CCCCN)CC(=O)N(CC(=O)N(CC(N)=O)Cc1ccc(F)cc1)Cc1ccc(F)cc1)Cc1ccc(F)cc1)Cc1ccc(F)cc1)Cc1ccc(F)cc1)Cc1ccc(F)cc1` [Peptoid 23, (NLysNpfbNpfb)3] (H-[Nlys][N(4-F-Bzl)Gly][N(4-F-Bzl)Gly][Nlys][N(4-F-Bzl)Gly][N(4-F-Bzl)Gly][Nlys][N(4-F-Bzl)Gly][N(4-F-Bzl)Gly]-NH2), the CC50 at 24 h in series [1] (ED50 HaCaT) came out at 100 µM; in series [2] (ED50 HepG2) it was 45 µM.

With `NCCCCNCC(=O)N(CC(=O)N(CC(=O)N(CCCCN)CC(=O)N(CC(=O)N(CC(=O)N(CCCCN)CC(=O)N(CC(=O)N(CC(N)=O)Cc1ccc(Cl)cc1)Cc1ccc(Cl)cc1)Cc1ccc(Cl)cc1)Cc1ccc(Cl)cc1)Cc1ccc(Cl)cc1)Cc1ccc(Cl)cc1` [Peptoid 21, (NLysNpcbNpcb)3] (H-[Nlys][Gly(Nα-4-Cl-benzyl)][Gly(Nα-4-Cl-benzyl)][Nlys][Gly(Nα-4-Cl-benzyl)][Gly(Nα-4-Cl-benzyl)][Nlys][Gly(Nα-4-Cl-benzyl)][Gly(Nα-4-Cl-benzyl)]-NH2), the CC50 at 24 h in series [1] (ED50 HaCaT) was 22 µM; in series [2] (ED50 HepG2) it was 23 µM.

In the case of `NCCCCNCC(=O)N(CC(=O)N(CC(=O)N(CCCCN)CC(=O)N(CC(=O)N(CC(=O)N(CCCCN)CC(=O)N(CC(=O)N(CC(=O)N(CCCCN)CC(=O)N(CC(=O)N(CC(N)=O)Cc1ccc(Cl)cc1)Cc1ccc(Cl)cc1)Cc1ccc(Cl)cc1)Cc1ccc(Cl)cc1)Cc1ccc(Cl)cc1)Cc1ccc(Cl)cc1)Cc1ccc(Cl)cc1)Cc1ccc(Cl)cc1` [Peptoid 20, (NLysNpcbNpcb)4] (H-[Nlys][Gly(Nα-4-Cl-benzyl)][Gly(Nα-4-Cl-benzyl)][Nlys][Gly(Nα-4-Cl-benzyl)][Gly(Nα-4-Cl-benzyl)][Nlys][Gly(Nα-4-Cl-benzyl)][Gly(Nα-4-Cl-benzyl)][Nlys][Gly(Nα-4-Cl-benzyl)][Gly(Nα-4-Cl-benzyl)]-NH2), the CC50 at 24 h stood at 18 µM in series [1] (ED50 HaCaT) and 22 µM in series [2] (ED50 HepG2).

In the case of `C[C@@H](c1ccccc1)N(CC(N)=O)C(=O)CN(C(=O)CN(CCN)C(=O)CN(C(=O)CN(C(=O)CNCCN)[C@@H](C)c1ccccc1)[C@@H](C)c1ccccc1)[C@@H](C)c1ccccc1` [Peptoid 18, (NaeNspeNspe)2], the CC50 at 24 h in series [1] (ED50 HaCaT) and in series [2] (ED50 HepG2) was 100 µM in each case.

Consider `C[C@@H](c1ccccc1)N(CC(N)=O)C(=O)CN(C(=O)CN(CCCCCCN)C(=O)CN(C(=O)CN(C(=O)CNCCCCCCN)[C@@H](C)c1ccccc1)[C@@H](C)c1ccccc1)[C@@H](C)c1ccccc1` [Peptoid 12, (NahNspeNspe)2], for which the CC50 at 24 h in series [1] (ED50 HaCaT) and in series [2] (ED50 HepG2) was 100 µM in each case.

In the case of `CCCCCNCC(=O)N(CC(=O)N(CC(=O)N(CCCCN)CC(=O)N(CC(=O)N(CC(=O)N(CCCCN)CC(=O)N(CC(=O)N(CC(=O)N(CCCCN)CC(=O)N(CC(=O)N(CC(N)=O)[C@@H](C)c1ccccc1)[C@@H](C)c1ccccc1)[C@@H](C)c1ccccc1)[C@@H](C)c1ccccc1)[C@@H](C)c1ccccc1)[C@@H](C)c1ccccc1)[C@@H](C)c1ccccc1)[C@@H](C)c1ccccc1` [Peptoid 30, (NamyNspeNspe)[(NLysNspeNspe)]3], the CC50 at 24 h in series [1] (ED50 HaCaT) was 12 µM; in series [2] (ED50 HepG2), 15 µM.

For `CCCCCNCC(=O)N(CC(=O)N(CC(=O)N(CCCCC)CC(=O)N(CC(=O)N(CC(=O)N(CCCCN)CC(=O)N(CC(=O)N(CC(=O)N(CCCCN)CC(=O)N(CC(=O)N(CC(N)=O)[C@@H](C)c1ccccc1)[C@@H](C)c1ccccc1)[C@@H](C)c1ccccc1)[C@@H](C)c1ccccc1)[C@@H](C)c1ccccc1)[C@@H](C)c1ccccc1)[C@@H](C)c1ccccc1)[C@@H](C)c1ccccc1` [Peptoid 31, (NamyNspeNspe)2(NLysNspeNspe)2], the CC50 at 24 h amounted to 20 µM in series [1] (ED50 HaCaT) and 18 µM in series [2] (ED50 HepG2).

Regarding `NCCCCCCNCC(=O)N(CC(=O)N(CC(=O)N(CCCCCCN)CC(=O)N(CC(=O)N(CC(N)=O)Cc1ccccc1)Cc1ccccc1)Cc1ccccc1)Cc1ccccc1` [Peptoid 3, (NahNpheNphe)2] (H-[Gly(N-(CH2)6NH2)][Nphe][Nphe][Gly(N-(CH2)6NH2)][Nphe][Nphe]-NH2), the CC50 at 24 h in series [1] (ED50 HaCaT) and in series [2] (ED50 HepG2) was 100 µM each time.

For `NCCCCNCC(=O)N(CC(=O)N(CC(=O)N(CCCCN)CC(=O)N(CC(=O)N(CC(N)=O)Cc1ccccc1)Cc1ccccc1)Cc1ccccc1)Cc1ccccc1` [Peptoid 6, (NLysNpheNphe)2] (H-[Nlys][Nphe][Nphe][Nlys][Nphe][Nphe]-NH2), the CC50 at 24 h in series [1] (ED50 HaCaT) and in series [2] (ED50 HepG2) was 100 µM each time.

Take `C[C@@H](c1ccccc1)N(CC(N)=O)C(=O)CN(C(=O)CN(CCN)C(=O)CN(C(=O)CN(C(=O)CN(CCN)C(=O)CN(C(=O)CN(C(=O)CNCCN)[C@@H](C)c1ccccc1)[C@@H](C)c1ccccc1)[C@@H](C)c1ccccc1)[C@@H](C)c1ccccc1)[C@@H](C)c1ccccc1` [Peptoid 17, (NaeNspeNspe)3]: the CC50 at 24 h in series [1] (setting [3]) and in series [2] (setting [4]) was 100 µM each time.

As for `C[C@@H](c1ccccc1)N(CC(N)=O)C(=O)CN(C(=O)CN(CCCCCCN)C(=O)CN(C(=O)CN(C(=O)CN(CCCCCCN)C(=O)CN(C(=O)CN(C(=O)CN(CCCCCCN)C(=O)CN(C(=O)CN(C(=O)CNCCCCCCN)[C@@H](C)c1ccccc1)[C@@H](C)c1ccccc1)[C@@H](C)c1ccccc1)[C@@H](C)c1ccccc1)[C@@H](C)c1ccccc1)[C@@H](C)c1ccccc1)[C@@H](C)c1ccccc1` [Peptoid 10, (NahNspeNspe)4] (H-[Gly(N-(CH2)6NH2)][Nspe][Nspe][Gly(N-(CH2)6NH2)][Nspe][Nspe][Gly(N-(CH2)6NH2)][Nspe][Nspe][Gly(N-(CH2)6NH2)][Nspe][Nspe]-NH2; N-terminus assumed), the figures for the CC50 at 24 h in series [1] (ED50 HaCaT) and in series [2] (ED50 HepG2) were 23 µM and 41 µM, respectively.

For `NCCNCC(=O)N(CC(=O)N(CC(=O)N(CCN)CC(=O)N(CC(=O)N(CC(N)=O)Cc1ccccc1)Cc1ccccc1)Cc1ccccc1)Cc1ccccc1` [Peptoid 9, (NaeNpheNphe)2] (H-[Gly(N-2-aminoethyl)][Nphe][Nphe][Gly(N-2-aminoethyl)][Nphe][Nphe]-NH2), the CC50 at 24 h in series [1] (ED50 HaCaT) and in series [2] (ED50 HepG2) was 100 µM throughout.
